Measured values from patent publication US20070066512A1, “Methods and compositions using immunomodulatory compounds for the treatment of disorders associated with low plasma leptin levels” (priority 2005, published 2007).

How the values were obtained:
adiponectin mRNA = assay: Northern blot of adiponectin mRNA in MSC-derived adipocytes; type: cell-based, Human; conditions: adipocytes treated with compound vs DMSO; GAPDH control unchanged
Protocol: (§1) Human Mesenchymal Stem Cell (MSC) and adipocyte differentiation media were obtained from Cambrex (Walkersville, Md.). MSCs were seeded in 24 well plates at 40,000 cells per well in MSC Basic Medium (MSCBM), supplemented with 10% serum and expanded for 7 days. At 100% of confluence, three cycles of induction/maintenance stimulated adipogetic differentiation. Each cycle consisted feeding MSCs with Adipogenic Induction Medium (AIM) for 3 days, followed by 1 day of culture in Adipogenic Maintenance Medium (AMM). AIM and AMM contained 10% serum, Pen-Sterep and L-Glu, supplemented with insulin, dexamethasone, indomethacin and IBMX, or insulin only. After 3 complete cycles of induction/maintenance, MSCs are cultured for 3 more days in AMM and analyzed.
(§2) To study the effects of immunomodulatory compounds on adipocyte differentiation, MSCs were differentiated in the presence of DMSO or varying concentrations of an immunomodulatory compound. DMSO and immunomodulatory compounds were added to the medium during the differentiation and maintenance steps. Phenotypic characterization of the cells for adipocyte markers, such as triglyceride content and adipokine secretion, was performed.
(§3) RNAs from MSC-derived adipocytes were isolated with RNeasy lipid tissue kit (Qiagen, Valencia, Calif.). […]

[1] = test system: adiponectin secretion in adipocytes; assay: Adiponectin secretion of adipocytes (quantikine human adiponectin immunoassay); type: cell-based; conditions: adipocytes differentiated in presence of compound
Protocol: as §1
To study the effects of immunomodulatory compounds on adipocyte differentiation, MSCs were differentiated in the presence of DMSO or varying concentrations of an immunomodulatory compound. […]
Leptin and adiponectin were measured using the quantikine human leptin and human adiponectin immunoassay kits (R&D Systems, Minneapolis, Minn.). To measure leptin secretion, 100 μl of medium was collected from the cell plates, diluted 2 or 5 times depending on the collecting time during the differentiation process, and analyzed following the manufacturer's protocols. […] For adiponectin secretion, 50 μl of medium was collected and directly analyzed.

[2] = test system: leptin secretion in adipocytes; assay: Leptin secretion of adipocytes (quantikine human leptin immunoassay); type: cell-based; conditions: for concentration giving maximum of dose dependent leptin secretion response: adipocytes differentiated in presence of compound; for dexamethasone induced leptin secretion (FIG. 3C): dexamethasone added to the cells for 15 hours at the end of differentiation
Protocol: as §1, §2
Leptin and adiponectin were measured using the quantikine human leptin and human adiponectin immunoassay kits (R&D Systems, Minneapolis, Minn.). To measure leptin secretion, 100 μl of medium was collected from the cell plates, diluted 2 or 5 times depending on the collecting time during the differentiation process, and analyzed following the manufacturer's protocols. Results were corrected for the dilution factor. For adiponectin secretion, 50 μl of medium was collected and directly analyzed.

[3] = test system: adipocytes differentiated from Human Mesenchymal Stem Cell (MSC); assay: Triglyceride accumulation in MSC-derived adipocytes (microscopy, Oil Red O staining); type: cell-based; conditions: for triglyceride accumulation quantified by Oil Red O staining (FIG. 2B): cells cultured with compound vs DMSO
Protocol: as §1, §2
Fat content in adipocyte was quantified by Oil Red O staining. Cells were washed with PBS and fixed with 3.7% formaldehyde for 15 minutes. Lipid vacuoles were stained with 0.5% Oil Red O in 60% isopropanol for 30 minutes at 37° C. Cells were then washed three times with water and Oil Red O content was dissolved into 100% propanol. The optical density of the solution was measured at 510 nm.

MSCs [4] = assay: MSC viability (XTT assay); type: cell-based, Human; conditions: MSCs treated for 2 days vs DMSO
Protocol: (§4) MSC viability was assayed using cell proliferation kit II (XTT) (Roche, Indianapolis, Ind.). MSC proliferation was assayed using 5-bromo-2′-deoxy-uridine labeling and detection kit III (BrdU) (Roche, Indianapolis, Ind.). MSCs have been seeded in 96 well plates and expanded for 2 days in presence of DMSO or varying concentrations of an immunomodulatory compound. XTT and BrdU were added to the cells for 20 hours. The viability and proliferation of MSCs were assayed following manufacturer's instructions.

MSCs [5] = assay: MSC proliferation (BrdU incorporation assay); type: cell-based, Human; conditions: MSCs treated for 2 days vs DMSO
Protocol: as §4

leptin mRNA = assay: Northern blot of leptin mRNA in MSC-derived adipocytes; type: cell-based, Human; conditions: adipocytes treated with compound vs DMSO; GAPDH control unchanged
Protocol: as §1, §2, §3

[6] = cited from earlier work; for hygroscopicity of polymorphic form: crystalline form of 3-(4-amino-1-oxo-1,3 dihydro-isoindol-2-yl)-piperidene-2,6-dione; for interconversion of polymorphic form: aqueous solvent systems or higher relative humidities

Row | Structure (SMILES) | level of adiponectin mRNAs (northern blot, FIG. 5) (adiponectin mRNA) | adiponectin secretion vs cells differentiated in DMSO (FIG. 4) [1] | concentration giving maximum of dose dependent leptin secretion response [2] | dexamethasone induced leptin secretion (FIG. 3C) [2] | triglyceride accumulation quantified by Oil Red O staining (FIG. 2B) [3] | cell viability (XTT, FIG. 6) (MSCs [4]) | cell proliferation (BrdU incorporation, FIG. 6) (MSCs [5]) | level of leptin mRNAs (northern blot, FIG. 5) (leptin mRNA) | hygroscopicity of polymorphic form [6] | interconversion of polymorphic form [6] | other results
1 | Nc1cccc2c1C(=O)N(C1CCC(=O)NC1=O)C2=O (centres unmarked) [1,3-dioxo-(2,6-dioxopiperidin-3-yl)-4-aminoisoindoline] | dose-dependent decrease | lower levels of adiponectin secretion | 10 µM | enhanced dexamethasone induced leptin secretion | no significant difference | neither 1-oxo-(2,6-dioxopiperidin-3-yl)-4-aminoisoindoline nor 1,3-dioxo-(2,6-dioxopiperidin-3-yl)-4-aminoisoindoline caused significant change | neither 1-oxo-(2,6-dioxopiperidin-3-yl)-4-aminoisoindoline nor 1,3-dioxo-(2,6-dioxopiperidin-3-yl)-4-aminoisoindoline caused significant change | dose-dependently increase |  |  | leptin secretion vs cells differentiated in DMSO (FIG. 3B) ([2]; adipocytes differentiated in presence of 0. 1, 1, 2.5, or 10 μM): a similar result was observed
2 | Nc1cccc2c1CN(C1CCC(=O)NC1=O)C2=O (centres unmarked) [1-oxo-(2,6-dioxopiperidin-3-yl)-4-aminoisoindoline] | dose-dependent decrease | lower levels of adiponectin secretion | 25 µM | enhanced dexamethasone induced leptin secretion | no significant difference | neither 1-oxo-(2,6-dioxopiperidin-3-yl)-4-aminoisoindoline nor 1,3-dioxo-(2,6-dioxopiperidin-3-yl)-4-aminoisoindoline caused significant change | neither 1-oxo-(2,6-dioxopiperidin-3-yl)-4-aminoisoindoline nor 1,3-dioxo-(2,6-dioxopiperidin-3-yl)-4-aminoisoindoline caused significant change | dose-dependently increase |  |  | leptin secretion vs cells differentiated in DMSO (FIG. 3A) ([2]; adipocytes differentiated in presence of 2.5, 10, 25, or 50 μM): secreted higher levels of leptin; ability of the cells to accumulate triglyceride (microscopy, FIG. 2A) ([3]; cells differentiated with compound vs DMSO, lipid vacuoles observed): does not alter the ability of the cells to accumulate triglyceride
3 | Nc1cccc2c1CN(C1CCC(=O)NC1=O)C2=O (centres unmarked) [Form A, 3-(4-amino-1-oxo-1,3 dihydro-isoindol-2-yl)-piperidene-2,6-dione] |  |  |  |  |  |  |  |  | weakly or not hygroscopic |  | relative stability of polymorphic form ([6]; Form A: among anhydrous polymorphs, Form E: in aqueous solvent systems): most thermodynamically stable anhydrous polymorph
4 | Nc1cccc2c1CN(C1CCC(=O)NC1=O)C2=O (centres unmarked) [Form B, 3-(4-amino-1-oxo-1,3 dihydro-isoindol-2-yl)-piperidene-2,6-dione] |  |  |  |  |  |  |  |  |  | converts to Form E in aqueous solvent systems | 
5 | Nc1cccc2c1CN(C1CCC(=O)NC1=O)C2=O (centres unmarked) [Form C, 3-(4-amino-1-oxo-1,3 dihydro-isoindol-2-yl)-piperidene-2,6-dione] |  |  |  |  |  |  |  |  | not hygroscopic below about 85% RH | can convert to Form B at higher relative humidities | 
6 | Nc1cccc2c1CN(C1CCC(=O)NC1=O)C2=O (centres unmarked) [Form D, 3-(4-amino-1-oxo-1,3 dihydro-isoindol-2-yl)-piperidene-2,6-dione] |  |  |  |  |  |  |  |  | either weakly or not hygroscopic | will typically convert to Form B when stressed at higher relative humidities | 
